{"source": "ChEMBL document CHEMBL1201862", "about": "“PubChem BioAssay data set” (2004)", "key": {"[1]": {"assay": "viability loss in A549 lung cells – cell-based, 24 h, CellTiter-Glo luminescence, cherry-picks, cytotoxicity control, dose response (AID 1053115)", "format": "functional", "details": "A549, 24 h"}, "[2]": {"assay": "M. tuberculosis growth inhibition, HTS (AID 449762)", "format": "functional"}, "[3]": {"assay": "OVCAR4 cell viability loss – plate reader, dry powder, SA11, cytotoxicity control for PAX8 inhibitor project, dose response (AID 743150)", "format": "functional, cell-based", "details": "OVCAR-4"}, "[4]": {"assay": "COV434 cell viability loss – plate reader, dry powder, SA7, cytotoxicity control for PAX8 inhibitor project, dose response (AID 743145)", "format": "functional, cell-based"}, "[5]": {"assay": "COV362 cell viability loss – plate reader, dry powder, SA12, cytotoxicity control for PAX8 inhibitor project, dose response (AID 743144)", "format": "functional, cell-based"}, "[6]": {"assay": "toxicity toward immortalized ovarian surface epithelium – cell-based, plate reader, dry powder samples, cytotoxicity control for PAX8 inhibitor project, dose response (AID 743045)", "format": "functional"}, "[7]": {"assay": "PAX8-dependent cell viability loss – plate reader, dry powder, dose response (AID 743049)", "format": "functional, cell-based"}, "Paired box protein Pax-8": {"target": "Paired box protein Pax-8 (Homo sapiens, UniProt Q06710)", "sequence (Q06710 whole entry)": "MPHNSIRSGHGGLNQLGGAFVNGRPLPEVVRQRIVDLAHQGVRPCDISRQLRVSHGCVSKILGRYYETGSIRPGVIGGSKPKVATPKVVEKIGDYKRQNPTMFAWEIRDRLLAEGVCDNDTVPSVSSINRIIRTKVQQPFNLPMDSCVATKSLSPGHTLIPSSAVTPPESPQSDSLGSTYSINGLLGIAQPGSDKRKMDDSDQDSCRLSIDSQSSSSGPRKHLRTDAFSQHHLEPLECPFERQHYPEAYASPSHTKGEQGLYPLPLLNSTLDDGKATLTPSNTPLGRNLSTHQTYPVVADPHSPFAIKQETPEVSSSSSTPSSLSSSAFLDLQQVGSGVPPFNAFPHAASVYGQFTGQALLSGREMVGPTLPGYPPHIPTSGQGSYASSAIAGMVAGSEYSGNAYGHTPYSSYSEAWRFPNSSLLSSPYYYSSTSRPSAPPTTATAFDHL", "assay": "PAX8 transcriptional activity inhibition in RMG-I – RMG-I cells, luciferase, cherry-pick, dose response (AID 687027);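 further: luciferase reporter driven by Pax8 target thyroperoxidase promoter measured by SteadyGlo luminescence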", "format": "functional, cell-based"}, "[8]": {"assay": "OV-90 cell viability loss – plate reader, dry powder, SA8, PAX8 inhibitor project, dose response (AID 743149)", "format": "functional, cell-based"}, "[9]": {"assay": "inhibitors acting on PAX2 in cells – cell-based, plate reader, dry powder samples, selectivity assay for PAX8 inhibitor project, dose response (AID 743048);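 further: HEK293 cells carrying a WT1 promoter luciferase reporter driven by expressed Pax2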", "format": "functional"}, "[10]": {"assay": "PAX5 cellular inhibition readout – cell-based, plate reader, dry powder samples, selectivity assay for PAX8 inhibitor project, dose response (AID 743047);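 further: HEK293 cells carrying a Pax5 driven CD19 promoter luciferase reporter; potency of inhibitors that lower reporter luminescence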", "format": "functional"}, "Protein skinhead-1": {"target": "T1, Protein skinhead-1 (Caenorhabditis elegans, UniProt P34707)", "T1 sequence (P34707 whole entry)": "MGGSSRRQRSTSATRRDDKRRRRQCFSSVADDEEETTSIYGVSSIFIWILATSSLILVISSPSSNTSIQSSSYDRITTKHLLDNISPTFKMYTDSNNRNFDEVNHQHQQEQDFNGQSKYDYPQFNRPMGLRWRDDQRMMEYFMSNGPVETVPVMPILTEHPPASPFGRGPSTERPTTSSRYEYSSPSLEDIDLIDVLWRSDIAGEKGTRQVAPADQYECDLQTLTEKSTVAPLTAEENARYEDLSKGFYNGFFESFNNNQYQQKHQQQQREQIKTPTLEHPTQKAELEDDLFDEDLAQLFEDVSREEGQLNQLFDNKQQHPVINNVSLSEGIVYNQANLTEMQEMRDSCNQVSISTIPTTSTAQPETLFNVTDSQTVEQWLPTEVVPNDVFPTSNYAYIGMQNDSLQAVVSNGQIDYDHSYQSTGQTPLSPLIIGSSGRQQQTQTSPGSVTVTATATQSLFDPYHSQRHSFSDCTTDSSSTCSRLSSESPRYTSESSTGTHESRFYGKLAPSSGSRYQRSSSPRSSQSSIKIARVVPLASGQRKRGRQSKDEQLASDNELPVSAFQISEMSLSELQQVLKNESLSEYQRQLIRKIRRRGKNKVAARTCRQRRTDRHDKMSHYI", "format": "functional"}, "[11]": {"assay": "viability of PTEN-deleted HCT116 cells – cell-based, HCT116 PTEN knockout, dose response (AID 1047);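 further: HCT116 colon tumor cells with PTEN knocked out; cells exposed to compound for 60 hours before readout; potency for loss of cell viability measured by luminescence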", "format": "functional"}, "[12]": {"assay": "viability of HCT116 lacking mutant beta-catenin – cell-based, human colon tumor, dose response (AID 1045);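 further: HCT116 colon tumor cells with beta catenin knocked out; cells exposed to compound for 60 hours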", "format": "functional"}, "[13]": {"assay": "reduced cellular PGC1a acetyl-lysine signal – cell-based, cherry-picked samples, dose response (AID 720514);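 further: potency may reflect raised or lowered acetylation signal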", "format": "functional"}, "[14]": {"target": "Mitogen-activated protein kinase 10 (Homo sapiens, UniProt P53779)", "sequence (P53779 whole entry)": "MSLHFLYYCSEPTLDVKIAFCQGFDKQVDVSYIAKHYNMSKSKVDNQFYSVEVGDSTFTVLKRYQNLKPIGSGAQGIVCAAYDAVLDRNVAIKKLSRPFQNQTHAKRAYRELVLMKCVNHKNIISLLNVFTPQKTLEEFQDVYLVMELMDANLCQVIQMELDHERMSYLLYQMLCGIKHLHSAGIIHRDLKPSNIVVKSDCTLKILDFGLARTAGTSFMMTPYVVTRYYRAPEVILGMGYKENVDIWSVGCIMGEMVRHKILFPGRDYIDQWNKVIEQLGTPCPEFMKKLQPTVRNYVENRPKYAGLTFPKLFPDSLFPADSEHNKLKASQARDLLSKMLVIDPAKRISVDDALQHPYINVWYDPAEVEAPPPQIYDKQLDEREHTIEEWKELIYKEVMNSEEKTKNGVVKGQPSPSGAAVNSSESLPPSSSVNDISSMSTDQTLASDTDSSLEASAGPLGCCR", "assay": "Dose response biochemical screening assay for inhibitors of c-Jun N-Terminal Kinase 3 (JNK3). [Related pubchem assays: 746 ]"}, "INS1": {"tested_on": "INS1", "assay": "INS-1E survival protection against cytokine death – cell-based, luminescence, retest, dose response (AID 449756);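 further: cell death triggered by IL-1 beta plus TNF-alpha plus IFN-gamma mixture; protective hits raise ATP signal compared with cytokine alone wells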", "format": "functional", "details": "Rattus norvegicus"}, "[15]": {"target": "Nucleotide-binding oligomerization domain-containing protein 2 (Homo sapiens, UniProt Q9HC29)", "sequence (Q9HC29 whole entry, the tested form may be a part)": "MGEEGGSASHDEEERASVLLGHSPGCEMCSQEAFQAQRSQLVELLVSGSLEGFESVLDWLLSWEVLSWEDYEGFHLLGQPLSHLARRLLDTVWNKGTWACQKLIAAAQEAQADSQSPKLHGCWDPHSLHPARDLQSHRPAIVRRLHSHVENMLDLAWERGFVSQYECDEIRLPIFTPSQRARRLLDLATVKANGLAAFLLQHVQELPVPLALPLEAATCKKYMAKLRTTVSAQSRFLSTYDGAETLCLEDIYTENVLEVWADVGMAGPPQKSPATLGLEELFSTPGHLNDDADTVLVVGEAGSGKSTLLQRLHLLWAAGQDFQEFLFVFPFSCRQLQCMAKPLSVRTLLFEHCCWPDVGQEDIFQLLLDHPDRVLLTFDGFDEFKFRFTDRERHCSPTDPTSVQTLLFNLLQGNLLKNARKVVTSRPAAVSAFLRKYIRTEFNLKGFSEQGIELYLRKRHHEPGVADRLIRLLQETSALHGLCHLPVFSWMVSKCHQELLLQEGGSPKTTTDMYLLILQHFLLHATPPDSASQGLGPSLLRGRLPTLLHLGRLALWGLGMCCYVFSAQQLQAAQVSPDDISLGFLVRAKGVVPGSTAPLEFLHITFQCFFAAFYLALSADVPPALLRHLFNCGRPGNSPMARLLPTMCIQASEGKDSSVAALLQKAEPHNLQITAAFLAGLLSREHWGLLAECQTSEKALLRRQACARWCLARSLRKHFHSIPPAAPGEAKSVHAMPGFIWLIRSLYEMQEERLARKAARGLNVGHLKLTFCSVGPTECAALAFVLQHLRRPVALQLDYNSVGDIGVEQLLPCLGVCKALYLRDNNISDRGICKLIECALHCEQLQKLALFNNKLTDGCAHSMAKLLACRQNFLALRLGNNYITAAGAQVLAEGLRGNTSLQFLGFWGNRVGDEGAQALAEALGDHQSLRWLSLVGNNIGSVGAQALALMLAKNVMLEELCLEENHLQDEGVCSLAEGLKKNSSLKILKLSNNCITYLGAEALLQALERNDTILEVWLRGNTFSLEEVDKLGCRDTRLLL", "assay": "inhibition of NOD2-driven NF-kB reporter – cell-based, luminescence, uHTS, HEK293 (AID 1566)", "format": "functional"}, "HEK293 [16]": {"tested_on": "HEK293", "assay": "cells", "format": "functional, cell-based", "details": "Homo sapiens"}, "[17]": {"target": "COUP transcription factor 2 (Homo sapiens, UniProt P24468)", "sequence (P24468 whole entry)": "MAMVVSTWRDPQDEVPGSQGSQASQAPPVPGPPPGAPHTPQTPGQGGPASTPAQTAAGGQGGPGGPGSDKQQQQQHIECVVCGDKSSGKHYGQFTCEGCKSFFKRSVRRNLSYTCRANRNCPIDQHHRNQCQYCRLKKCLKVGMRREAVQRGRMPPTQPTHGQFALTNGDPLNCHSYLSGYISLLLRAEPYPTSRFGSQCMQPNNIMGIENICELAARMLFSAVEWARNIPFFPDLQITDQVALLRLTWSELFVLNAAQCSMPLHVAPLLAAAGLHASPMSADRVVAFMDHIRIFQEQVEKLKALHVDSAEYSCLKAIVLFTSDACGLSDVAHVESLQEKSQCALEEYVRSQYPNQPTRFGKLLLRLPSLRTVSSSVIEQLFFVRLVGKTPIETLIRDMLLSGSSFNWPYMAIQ", "assay": "Luminescence-based cell-based high throughput dose response assay to identify inhibitors of COUP-TFII (NR2F2).", "format": "functional"}, "HEK293 [18]": {"tested_on": "HEK293", "assay": "inhibition of NOD1-driven NF-kB reporter – cell-based, luminescence, uHTS, primary screen (AID 1578)", "format": "functional", "details": "Homo sapiens"}, "HEK293 [19]": {"tested_on": "HEK293", "assay": "NOD2 signaling inhibitors in MDP-stimulated cells, cell-based, uHTS, luminescence (AID 2001)", "format": "functional", "details": "Homo sapiens"}, "[20]": {"target": "Heat shock protein HSP 90-alpha (Homo sapiens, UniProt P07900)", "assay": "Luminescence-based dose response biochemical high throughput screening assay for inhibitors of the Heat Shock Protein 90 (HSP90). [Related pubchem assays: 1831 (Summary AID.), 1846 (Confirmation screen.), 1789 (Primary screen.)]"}, "HEK293 [21]": {"tested_on": "HEK293", "assay": "cells", "format": "functional, cell-based", "details": "Homo sapiens", "remark": "listed apart in the source"}, "Galanin receptor type 2": {"target": "Galanin receptor type 2 (Homo sapiens, UniProt O43603)", "sequence (O43603 whole entry)": "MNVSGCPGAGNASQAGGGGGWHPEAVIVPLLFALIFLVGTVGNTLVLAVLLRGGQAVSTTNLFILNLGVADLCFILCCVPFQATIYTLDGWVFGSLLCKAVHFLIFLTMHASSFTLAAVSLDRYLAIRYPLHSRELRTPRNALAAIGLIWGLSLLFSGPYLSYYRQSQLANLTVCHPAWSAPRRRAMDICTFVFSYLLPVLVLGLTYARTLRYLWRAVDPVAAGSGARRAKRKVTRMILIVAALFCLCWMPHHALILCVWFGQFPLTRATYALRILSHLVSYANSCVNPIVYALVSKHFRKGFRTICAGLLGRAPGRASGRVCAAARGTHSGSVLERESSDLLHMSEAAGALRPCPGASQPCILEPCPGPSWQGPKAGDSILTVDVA", "assay": "Dose Response cell-based high-throughput screening assay to identify antagonists of galanin receptor 2 (GALR2). [Related pubchem assays: 828, 866 ]", "format": "functional"}, "HEK293 [22]": {"tested_on": "HEK293", "assay": "cells", "format": "functional, cell-based", "details": "Homo sapiens", "remark": "listed apart in the source"}, "[23]": {"target": "Diphosphomevalonate decarboxylase (Streptococcus pneumoniae serotype 2 (strain D39 / NCTC 7466), UniProt Q9FD53)", "sequence (Q9FD53 whole entry)": "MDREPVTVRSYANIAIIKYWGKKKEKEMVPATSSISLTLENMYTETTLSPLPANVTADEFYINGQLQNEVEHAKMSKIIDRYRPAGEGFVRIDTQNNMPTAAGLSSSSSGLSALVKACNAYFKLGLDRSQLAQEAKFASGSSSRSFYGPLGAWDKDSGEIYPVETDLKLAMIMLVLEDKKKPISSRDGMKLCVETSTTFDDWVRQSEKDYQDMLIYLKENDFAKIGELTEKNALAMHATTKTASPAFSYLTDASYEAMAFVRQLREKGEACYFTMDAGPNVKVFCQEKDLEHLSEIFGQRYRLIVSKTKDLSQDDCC", "assay": "diphosphomevalonate decarboxylase inhibitor confirmation – biochemical, cuvette format, coupled NADH fluorescence (AID 1028)", "format": "functional"}, "[24]": {"assay": "BioA aminotransferase inhibition, coupled fluorescent readout – biochemical, coupled fluorescence displacement, 20-point, dry powder, dose response (AID 743357)", "format": "functional"}}, "note": "Activity calls are given as the source filed them.", "data": [{"molecule": "OC[C@@H]1Nc2ccc(-c3ccccc3)cc2[C@@H]2[C@H]1CCN2Cc1ccc(F)cc1", "values": [{"measurement": "AC50", "setting": "[1]", "result": "> 60 µM (inactive)"}]}, {"molecule": "C/C(CC(=O)Nc1ccc(C)c(Cl)c1)=N\\NC(=O)Cc1cnc(N)s1", "values": [{"measurement": "IC50", "setting": "[2]", "result": "> 100 µM (active)"}]}, {"molecule": "COc1ccc(CCN2C(=O)CSC2=S)cc1OC", "values": [{"measurement": "AC50", "setting": "[3]", "result": "51.2 µM (active)"}, {"measurement": "AC50", "setting": "[4]", "result": "6.49 µM (active)"}, {"measurement": "AC50", "setting": "[5]", "result": "16.6 µM (active)"}, {"measurement": "AC50", "setting": "[6]", "result": "16.8 µM (active)"}, {"measurement": "AC50", "setting": "[7]", "result": "16 µM (active)"}, {"measurement": "AC50", "setting": "Paired box protein Pax-8", "result": "7.01 µM (active)"}, {"measurement": "AC50", "setting": "[8]", "result": "8.61 µM (active)"}, {"measurement": "AC50", "setting": "[9]", "result": "68.3 µM (active)"}, {"measurement": "AC50", "setting": "[10]", "result": "> 100 µM (inactive)"}]}, {"molecule": "CCOc1cc(CNC2CCCC2)cc(Cl)c1OCc1ccc(F)cc1", "values": [{"measurement": "IC50", "setting": "Protein skinhead-1", "result": "< 3.13 µM (active)"}, {"measurement": "EC50", "setting": "[11]", "result": "16.1 µM (active)"}, {"measurement": "EC50", "setting": "[12]", "result": "12.5 µM (active)"}, {"measurement": "AC50", "setting": "[13]", "result": "9.73 µM (active)"}]}, {"molecule": "Cc1cccc(/N=C/c2c(O)[nH]c3ccccc23)n1", "values": [{"measurement": "IC50", "setting": "[14]", "result": "41.7 µM (not active)"}]}, {"molecule": "CC(=O)Nc1ccccc1OCC(=O)c1cc(C)n(Cc2cccs2)c1C", "values": [{"measurement": "AC50", "setting": "INS1", "result": "0.775 µM (active)"}, {"measurement": "EC50", "setting": "[15]", "result": "< 0.31 µM (inactive)"}, {"measurement": "IC50", "setting": "HEK293 [16]", "result": "13.4 µM (active)"}, {"measurement": "IC50", "setting": "[17]", "result": "0.807 µM (active)"}, {"measurement": "EC50", "setting": "HEK293 [18]", "result": "0.566 µM (active)"}, {"measurement": "IC50", "setting": "HEK293 [19]", "result": "2.05 µM (inactive)"}, {"measurement": "IC50", "setting": "[20]", "result": "0.106 µM (active)"}, {"measurement": "IC50", "setting": "HEK293 [21]", "result": "< 0.312 µM (active)"}, {"measurement": "IC50", "setting": "Galanin receptor type 2", "result": "> 42 µM (not active)"}, {"measurement": "IC50", "setting": "HEK293 [22]", "result": "> 20 µM (inactive)"}]}, {"molecule": "CN(C)C(=O)c1ccc(-n2sc3ccccc3c2=O)cc1", "values": [{"measurement": "IC50", "setting": "[23]", "result": "21.9 µM (active)"}]}, {"molecule": "N#Cc1ccc(N2CCN(C(=O)c3ccc4c(c3)OCO4)CC2)cc1", "values": [{"measurement": "AC50", "setting": "[24]", "result": "16.8 µM (active)"}]}]}
